Assay results: patent US10172830B2, “Pyrazolone compounds having human neutrophil elastase inhibitory properties” (CHIESI FARMACEUTICI S.P.A., priority 2016, dated 2019)

Molecular target: T1, human neutrophil elastase (HNE) (Homo sapiens, UniProt P08246)
T1 construct: purchased Sigma E8140
T1 sequence (P08246 30-247 limits assumed): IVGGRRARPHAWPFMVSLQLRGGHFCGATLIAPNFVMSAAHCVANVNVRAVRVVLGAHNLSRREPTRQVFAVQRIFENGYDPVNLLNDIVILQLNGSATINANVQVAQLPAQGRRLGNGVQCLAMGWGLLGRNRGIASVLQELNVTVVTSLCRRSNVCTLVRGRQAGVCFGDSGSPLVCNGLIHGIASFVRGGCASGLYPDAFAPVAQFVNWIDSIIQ
Experiment: HNE enzyme assay (human neutrophil elastase enzyme activity assay)
Assay type: biochemical
Settings: human leukocyte elastase 0.00072 U/mL; substrate MeOSuc-Ala-Ala-Pro-Val-AMC 100 μM; 25° C. for 30 minutes; at least two separate experiments; read-out: HNE inhibition (HNE enzyme inhibition, IC50 values)
Method: Compounds of the present invention were tested for potency in a human neutrophil elastase (HNE) enzyme activity assay.
Assays were performed in 96-well plates in a total assay volume of 100 μL. The final concentration of elastase enzyme (human leukocyte elastase, Sigma E8140) was 0.00072 U/mL. The peptide substrate (MeOSuc-Ala-Ala-Pro-Val-AMC, Calbiochem #324740) was used at a final concentration of 100 μM. The final concentration of DMSO was 1% in the assay buffer (0.05M Tris.HCl, 0.1M NaCl, 0.1M CaCl2, 0.0005% brij-35, pH 7.5). The enzymatic reaction was started by addition of the enzyme and incubated at 25° C. for 30 minutes. After incubation, the reaction was stopped by addition of soybean trypsin inhibitor (Sigma T9003) at a final concentration of 50 μg/well. Fluorescence was measured using a Molecular Devices fluorescence plate reader using 380 nm excitation and 460 nm emission wavelengths.
A dose response to each compound was performed and the effect of compound in each experiment was expressed as a percentage inhibition of the control enzyme fluorescence. Dose response curves were plotted and compound potency (IC50) was determined. Compounds were tested in at least two separate experiments.

| IC50 [nM] | Structure (SMILES) |
| --- | --- |
| 1 to 10 | CN1CCC(NC(=O)c2c(-c3ccnn3-c3ccc(C#N)cc3)n(C)n(-c3cccc(C(F)(F)F)c3)c2=O)CC1 [Example 2, 2′-(4-Cyano-phenyl)-2-methyl-5-oxo-1-(3-trifluoromethyl-phenyl)-2,5-dihydro-1H,2′H-[3,3′]bipyrazolyl-4-carboxylic acid (1-methyl-piperidin-4-yl)-amide] |
| < 1 | CCNC(=O)c1c(-c2ccnn2-c2ccc(C#N)cc2)n(C)n(-c2cccc(C(F)(F)F)c2)c1=O [Example 3, 2′-(4-Cyano-phenyl)-2-methyl-5-oxo-1-(3-trifluoromethyl-phenyl)-2,5-dihydro-1H,2′H-[3,3′]bipyrazolyl-4-carboxylic acid ethylamide] |
| < 1 | Cn1c(-c2ccnn2-c2ccc(C#N)cc2)c(C(=O)N[C@@H]2C[C@@H]3CN(C(=O)OC(C)(C)C)C[C@@H]3C2)c(=O)n1-c1cccc(C(F)(F)F)c1 [Example 4, (3aS,5R,6aR)-5-{[2′-(4-Cyano-phenyl)-2-methyl-5-oxo-1-(3-trifluoromethyl-phenyl)-2,5-dihydro-1H,2′H-[3,3′]bipyrazolyl-4-carbonyl]-amino}-hexahydro-cyclopenta[c]pyrrole-2-carboxylic acid tert-butyl ester] |
| < 1 | C[C@H](NC(=O)c1c(-c2ccnn2-c2ccc(C#N)cc2)n(C)n(-c2cccc(C(F)(F)F)c2)c1=O)c1ncc(CN(C)C)o1 [Example 5, 2′-(4-Cyano-phenyl)-2-methyl-5-oxo-1-(3-trifluoromethyl-phenyl)-2,5-dihydro-1H,2′H-[3,3′]bipyrazolyl-4-carboxylic acid [(S)-1-(5-dimethylaminomethyl-oxazol-2-yl)-ethyl]-amide] |
| < 1 | CN(C)CC(=O)N1CCC(NC(=O)c2c(-c3ccnn3-c3ccc(C#N)cc3)n(C)n(-c3cccc(C(F)(F)F)c3)c2=O)CC1 [Example 6, 2′-(4-Cyano-phenyl)-2-methyl-5-oxo-1-(3-trifluoromethyl-phenyl)-2,5-dihydro-1H,2′H-[3,3′]bipyrazolyl-4-carboxylic acid [1-(2-dimethylamino-acetyl)-piperidin-4-yl]-amide] |
| < 1 | C[C@H](NC(=O)c1c(-c2ccnn2-c2ccc(C#N)cc2)n(C)n(-c2cccc(C(F)(F)F)c2)c1=O)C(=O)N(C)CC1CCN(C)CC1 [Example 7, 2′-(4-Cyano-phenyl)-2-methyl-5-oxo-1-(3-trifluoromethyl-phenyl)-2,5-dihydro-1H,2′H-[3,3′]bipyrazolyl-4-carboxylic acid {(S)-1-[methyl-(1-methyl-piperidin-4-ylmethyl)-carbamoyl]-ethyl}-amide] |
| < 1 | CN1CCC(OC(=O)[C@H]2CC[C@H](NC(=O)c3c(-c4ccnn4-c4ccc(C#N)cc4)n(C)n(-c4cccc(C(F)(F)F)c4)c3=O)CC2)CC1 [Example 13, Trans-4-{[2′-(4-cyano-phenyl)-2-methyl-5-oxo-1-(3-trifluoromethyl-phenyl)-2,5-dihydro-1H,2′H-[3,3′]bipyrazolyl-4-carbonyl]-amino}-cyclohexanecarboxylic acid 1-methyl-piperidin-4-yl ester] |
| < 1 | CN(C)C1CCN(C(=O)[C@H]2CC[C@H](NC(=O)c3c(-c4ccnn4-c4ccc(C#N)cc4)n(C)n(-c4cccc(C(F)(F)F)c4)c3=O)CC2)CC1 [Example 14, 2′-(Trans-4-cyano-phenyl)-2-methyl-5-oxo-1-(3-trifluoromethyl-phenyl)-2,5-dihydro-1H,2′H-[3,3′]bipyrazolyl-4-carboxylic acid [4-(4-dimethylamino-piperidine-1-carbonyl)-cyclohexyl]-amide] |
| < 1 | CN(C)CC(=O)O[C@H]1CC[C@H](NC(=O)c2c(-c3ccnn3-c3ccc(C#N)cc3)n(C)n(-c3cccc(C(F)(F)F)c3)c2=O)CC1 [Example 16, Dimethylamino-acetic acid trans-4-{[2′-(4-cyano-phenyl)-2-methyl-5-oxo-1-(3-trifluoromethyl-phenyl)-2,5-dihydro-1H,2′H-[3,3′]bipyrazolyl-4-carbonyl]-amino}-cyclohexyl ester] |

The next lines start with the compound.

| Structure (SMILES) | IC50 [nM] |
| --- | --- |
| CCOC(=O)c1c(-c2ccnn2-c2ccc(C#N)cc2)n(C)n(-c2cccc(C(F)(F)F)c2)c1=O [Example 1, 2′-(4-Cyano-phenyl)-2-methyl-5-oxo-1-(3-trifluoromethyl-phenyl)-2,5-dihydro-1H,2′H-[3,3′]bipyrazolyl-4-carboxylic acid ethyl ester] | < 1 |
| C[C@H](NC(=O)c1c(-c2ccnn2-c2ccc(C#N)cc2)n(C)n(-c2cccc(C(F)(F)F)c2)c1=O)c1nnc(CN(C)C)o1 [Example 8, 2′-(4-Cyano-phenyl)-2-methyl-5-oxo-1-(3-trifluoromethyl-phenyl)-2,5-dihydro-1H,2′H-[3,3′]bipyrazolyl-4-carboxylic acid [(S)-1-(5-dimethylaminomethyl-[1,3,4]oxadiazol-2-yl)-ethyl]-amide] | < 1 |
| CN1CCC(CN(C)C(=O)C(C)(C)NC(=O)c2c(-c3ccnn3-c3ccc(C#N)cc3)n(C)n(-c3cccc(C(F)(F)F)c3)c2=O)CC1 [Example 9, 2′-(4-Cyano-phenyl)-2-methyl-5-oxo-1-(3-trifluoromethyl-phenyl)-2,5-dihydro-1H,2′H-[3,3′]bipyrazolyl-4-carboxylic acid {1-methyl-1-[methyl-(1-methyl-piperidin-4-ylmethyl)-carbamoyl]-ethyl}-amide] | < 1 |
| CN(C)Cc1cnc(C(C)(C)NC(=O)c2c(-c3ccnn3-c3ccc(C#N)cc3)n(C)n(-c3cccc(C(F)(F)F)c3)c2=O)o1 [Example 10, 2′-(4-Cyano-phenyl)-2-methyl-5-oxo-1-(3-trifluoromethyl-phenyl)-2,5-dihydro-1H,2′H-[3,3′]bipyrazolyl-4-carboxylic acid [1-(5-dimethylaminomethyl-oxazol-2-yl)-1-methyl-ethyl]-amide] | < 1 |
| CC(C)[C@H](NC(=O)c1c(-c2ccnn2-c2ccc(C#N)cc2)n(C)n(-c2cccc(C(F)(F)F)c2)c1=O)c1ncc(CN(C)C)o1 [Example 11, 2′-(4-Cyano-phenyl)-2-methyl-5-oxo-1-(3-trifluoromethyl-phenyl)-2,5-dihydro-1H,2′H-[3,3′]bipyrazolyl-4-carboxylic acid [(S)-1-(5-dimethylaminomethyl-oxazol-2-yl)-2-methyl-propyl]-amide] | < 1 |
| CN1CCC(NC(=O)[C@H]2CC[C@H](NC(=O)c3c(-c4ccnn4-c4ccc(C#N)cc4)n(C)n(-c4cccc(C(F)(F)F)c4)c3=O)CC2)CC1 [Example 12, 2′-(Trans-4-cyano-phenyl)-2-methyl-5-oxo-1-(3-trifluoromethyl-phenyl)-2,5-dihydro-1H,2′H-[3,3′]bipyrazolyl-4-carboxylic acid [4-(1-methyl-piperidin-4-ylcarbamoyl)-cyclohexyl]-amide] | < 1 |
| CN(C)CCOC(=O)[C@H]1CC[C@H](NC(=O)c2c(-c3ccnn3-c3ccc(C#N)cc3)n(C)n(-c3cccc(C(F)(F)F)c3)c2=O)CC1 [Example 15, Trans-4-{[2′-(4-cyano-phenyl)-2-methyl-5-oxo-1-(3-trifluoromethyl-phenyl)-2,5-dihydro-1H,2′H-[3,3′]bipyrazolyl-4-carbonyl]-amino}-cyclohexanecarboxylic acid 2-dimethylamino-ethyl ester] | < 1 |
